Key:
[1] = Visual release rate test of Bitrex in water; type: physicochemical; settings: after 15 minutes; 0.4 mg agitated in 10 ml of water
Protocol: 0.4 mg of sample was agitated in 10 ml of water and observed over 8 hours.

[2] = UV/Vis release rate measurement of Bitrex in water; type: physicochemical; settings: 100 mg in 40 ml water
Protocol: 2 ml of the mixture was removed at each time interval for analysis.

- visual release: state of sample in water [1]: fully dissolved
- % release of Bitrex relative to the total content ([2]; 5 minutes): 99.6%
- % release of Bitrex relative to the total content ([2]; 15 minutes): 99.8%
Compound: CC[N+](CC)(CC(=O)Nc1c(C)cccc1C)Cc1ccccc1 [uncoated Bitrex, denatonium benzoate]

From patent US20140249031A1, “MICELLE-COATED CRYSTALLINE PARTICLES” (SYNGENTA LIMITED, priority 2011, published 2014)
